Results from patent publication US20210300940A1 (Merck Patent GmbH, priority 2018, published 2021).

Legend:
TLR7 = target: T1, TLR7 (Homo sapiens, UniProt Q9NYK1); test: HEK/293 TLR7 Cell Assay; format: cell-based; conditions: TLR7/NFKb HEK cells, R848 agonist 10 uM final concentration, Steady-Glo readout; read-out: TLR7 potency
T1 construct: expressed in transfected cells; host or cells: HEK/293 cells carrying TLR7 and an NF-kB luciferase reporter
T1 sequence (Q9NYK1 27-1049): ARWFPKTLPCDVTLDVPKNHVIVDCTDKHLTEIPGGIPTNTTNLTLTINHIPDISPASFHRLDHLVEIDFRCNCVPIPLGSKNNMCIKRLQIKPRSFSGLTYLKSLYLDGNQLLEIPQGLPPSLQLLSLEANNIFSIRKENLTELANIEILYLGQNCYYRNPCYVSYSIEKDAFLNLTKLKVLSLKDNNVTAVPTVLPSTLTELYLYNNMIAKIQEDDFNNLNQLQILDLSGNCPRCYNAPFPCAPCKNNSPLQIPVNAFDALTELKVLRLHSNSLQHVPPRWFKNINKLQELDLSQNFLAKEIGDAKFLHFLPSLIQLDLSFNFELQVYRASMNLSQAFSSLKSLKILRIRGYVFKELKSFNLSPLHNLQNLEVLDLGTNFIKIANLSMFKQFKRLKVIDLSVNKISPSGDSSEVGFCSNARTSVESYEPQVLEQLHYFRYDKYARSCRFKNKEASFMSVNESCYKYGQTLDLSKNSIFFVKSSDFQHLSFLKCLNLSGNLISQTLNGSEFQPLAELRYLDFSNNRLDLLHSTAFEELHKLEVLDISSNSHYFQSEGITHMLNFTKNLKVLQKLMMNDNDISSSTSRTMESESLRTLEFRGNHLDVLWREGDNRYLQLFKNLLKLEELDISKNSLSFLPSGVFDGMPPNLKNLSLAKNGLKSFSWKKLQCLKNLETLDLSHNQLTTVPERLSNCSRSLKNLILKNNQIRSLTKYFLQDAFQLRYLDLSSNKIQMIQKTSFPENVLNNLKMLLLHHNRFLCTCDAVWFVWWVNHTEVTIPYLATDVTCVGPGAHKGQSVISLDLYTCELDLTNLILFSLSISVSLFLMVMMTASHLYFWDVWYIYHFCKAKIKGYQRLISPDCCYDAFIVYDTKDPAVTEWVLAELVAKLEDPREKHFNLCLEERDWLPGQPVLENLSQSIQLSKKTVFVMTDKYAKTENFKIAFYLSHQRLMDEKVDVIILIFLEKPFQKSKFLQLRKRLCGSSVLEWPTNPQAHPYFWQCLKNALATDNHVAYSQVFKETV
How it was run: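 TLR7/NF-κB reporter HEK293 cells, 5000/well, cultured 24 h, then preincubated 30 min with compound before R848 agonist (10 uM final). After 5 h stimulation, Steady-Glo luciferase luminescence read.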

TLR8 = target: T2, TLR8 (Homo sapiens, UniProt Q9NR97); test: HEK/293 TLR8 Cell Assay; format: cell-based; conditions: HEK cells, R848 agonist 30 uM final concentration, Steady-Glo readout; read-out: TLR8 potency
T2 construct: expressed in transfected cells; host or cells: HEK/293 reporter cells (NF-kB luciferase)
T2 sequence (Q9NR97 27-1041): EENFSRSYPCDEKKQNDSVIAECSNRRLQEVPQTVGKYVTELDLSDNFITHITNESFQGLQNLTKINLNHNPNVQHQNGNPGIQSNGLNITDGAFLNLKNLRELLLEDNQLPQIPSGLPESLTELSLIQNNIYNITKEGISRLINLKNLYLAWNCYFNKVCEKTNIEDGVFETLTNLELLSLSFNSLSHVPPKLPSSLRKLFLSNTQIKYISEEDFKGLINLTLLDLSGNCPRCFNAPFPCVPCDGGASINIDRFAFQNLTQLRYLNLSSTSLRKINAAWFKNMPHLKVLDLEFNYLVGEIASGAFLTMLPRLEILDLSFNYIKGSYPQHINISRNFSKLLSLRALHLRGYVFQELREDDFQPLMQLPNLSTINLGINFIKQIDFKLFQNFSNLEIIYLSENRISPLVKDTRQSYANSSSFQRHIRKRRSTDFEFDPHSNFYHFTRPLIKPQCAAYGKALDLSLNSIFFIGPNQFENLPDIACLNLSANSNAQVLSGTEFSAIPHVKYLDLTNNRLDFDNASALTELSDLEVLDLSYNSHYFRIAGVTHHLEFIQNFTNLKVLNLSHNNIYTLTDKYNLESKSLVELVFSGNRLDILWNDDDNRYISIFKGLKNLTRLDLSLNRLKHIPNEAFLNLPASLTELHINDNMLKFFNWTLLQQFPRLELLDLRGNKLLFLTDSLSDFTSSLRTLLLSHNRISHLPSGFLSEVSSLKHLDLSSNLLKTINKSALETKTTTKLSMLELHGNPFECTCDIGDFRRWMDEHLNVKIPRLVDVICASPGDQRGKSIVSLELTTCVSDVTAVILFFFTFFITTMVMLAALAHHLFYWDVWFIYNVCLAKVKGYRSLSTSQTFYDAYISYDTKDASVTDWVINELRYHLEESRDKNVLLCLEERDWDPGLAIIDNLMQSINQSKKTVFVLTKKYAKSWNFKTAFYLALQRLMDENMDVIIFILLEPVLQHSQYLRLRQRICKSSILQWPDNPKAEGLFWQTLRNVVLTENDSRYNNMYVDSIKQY

| IC50 (TLR7) [nM] | IC50 (TLR8) [nM] | Structure (SMILES) |
| --- | --- | --- |
| > 150 | > 150 | C[C@H]1C[C@@H](NCC(O)CO)CN(c2cnc(C#N)c3ncccc23)C1 (stereo partly drawn) [Example 35, 5-[(3R,5S)-3-(2,3-Dihydroxy-propylamino)-5-methyl-piperidin-1-yl]-naphthyridine-8-carbonitrile] |
| < 75 | < 75 | C[C@H]1C[C@@H](NCCC(=O)NO)CN(c2ccc(C(F)(F)F)c3ncccc23)C1 [Example 36, N-Hydroxy-3-[(3R,5S)-5-methyl-1-(8-trifluoromethyl-quinolin-5-yl)-piperidin-3-ylamino]-propionamide] |
| > 150 | 75 to 150 | N#Cc1ccc(N2C[C@H](NCCCS(N)(=O)=O)C[C@H](C(F)(F)F)C2)c2cccnc12 [Example 38, 3-[(3R,5S)-1-(8-Cyano-quinolin-5-yl)-5-trifluoromethyl-piperidin-3-ylamino]-propane-1-sulfonic acid amide] |
| < 75 | < 75 | C[C@H]1C[C@@H](NCCCS(N)(=O)=O)CN(c2ccc(C(F)(F)F)c3ncccc23)C1 [Example 39, 3-[(3R,5S)-5-Methyl-1-(8-trifluoromethyl-quinolin-5-yl)-piperidin-3-ylamino]-propane-1-sulfonic acid amide] |
| > 150 | 75 to 150 | N#Cc1ccc(N2C[C@H](NCCNC(N)=O)C[C@H](C(F)(F)F)C2)c2cccnc12 [Example 40, {2-[(3R,5S)-1-(8-Cyano-quinolin-5-yl)-5-trifluoromethyl-piperidin-3-ylamino]-ethyl}-urea] |
| < 75 | 75 to 150 | CC(=O)NCCN[C@@H]1C[C@H](C(F)(F)F)CN(c2ccc(C#N)c3ncccc23)C1 [Example 44, N-{2-[(3R,5S)-1-(8-Cyano-quinolin-5-yl)-5-trifluoromethyl-piperidin-3-ylamino]-ethyl}-acetamide] |
| < 75 | < 75 | C[C@H]1C[C@@H](NCC2(O)CCOCC2)CN(c2ccc(C(F)(F)F)c3ncccc23)C1 [Example 50, 4-{[(3R,5S)-5-Methyl-1-(8-trifluoromethyl-quinolin-5-yl)-piperidin-3-ylamino]-methyl}-tetrahydro-pyran-4-ol] |
| < 75 | < 75 | C[C@H]1C[C@@H](NCC(=O)N2CC(O)C2)CN(c2ccc(C(F)(F)F)c3ncccc23)C1 [Example 51, 1-(3-Hydroxy-azetidin-1-yl)-2-[(3R,5S)-5-methyl-1-(8-trifluoromethyl-quinolin-5-yl)-piperidin-3-ylamino]-ethanone] |
| < 75 | < 75 | CONC(=O)CCCN[C@@H]1C[C@H](C)CN(c2ccc(C(F)(F)F)c3nccnc23)C1 [Example 52, N-Methoxy-4-[(3R,5S)-5-methyl-1-(8-trifluoromethyl-quinoxalin-5-yl)-piperidin-3-ylamino]-butyramide] |
| < 75 | 75 to 150 | C[C@H]1C[C@@H](NCCC(=O)N2CC(O)C2)CN(c2ccc(C(F)(F)F)c3ncccc23)C1 [Example 53, 1-(3-Hydroxy-azetidin-1-yl)-3-[(3R,5S)-5-methyl-1-(8-trifluoromethyl-quinolin-5-yl)-piperidin-3-ylamino]-propan-1-one] |

The remaining lines, values behind:

| Structure (SMILES) | IC50 (TLR7) [nM] | IC50 (TLR8) [nM] |
| --- | --- | --- |
| C[C@H]1C[C@@H](NCCCS(N)(=O)=O)CN(c2ccc(C#N)c3nccnc23)C1 [Example 34, 3-[(3R,5S)-1-(8-Cyano-quinoxalin-5-yl)-5-methyl-piperidin-3-ylamino]-propane-1-sulfonic acid amide] | < 75 | < 75 |
| CC(=O)NCCN[C@@H]1C[C@H](C)CN(c2ccc(C(F)(F)F)c3ncccc23)C1 [Example 37, N-{2-[(3R,5S)-5-Methyl-1-(8-trifluoromethyl-quinolin-5-yl)-piperidin-3-ylamino]-ethyl}-acetamide formic acid] | < 75 | < 75 |
| C[C@H]1C[C@@H](NCCNS(C)(=O)=O)CN(c2ccc(C#N)c3nccnc23)C1 [Example 41, N-{2-[(3R,5S)-1-(8-Cyano-quinoxalin-5-yl)-5-methyl-piperidin-3-ylamino]-ethyl}-methanesulfonamide] | < 75 | < 75 |
| C[C@H]1C[C@@H](NCC2CCS(=O)(=O)C2)CN(c2ccc(C#N)c3nccnc23)C1 (stereo partly drawn) [Example 42, 8-{(3R,5S)-3-[(1,1-Dioxo-tetrahydro-1lambda6-thiophen-3-ylmethyl)-amino]-5-methyl-piperidin-1-yl}-quinoxaline-5-carbonitrile] | 75 to 150 | 75 to 150 |
| C[C@H]1C[C@@H](NCCC2CS(=O)(=O)C2)CN(c2ccc(C#N)c3nccnc23)C1 [Example 43, 8-{(3R,5S)-3-[2-(1,1-Dioxo-1lambda6-thietan-3-yl)-ethylamino]-5-methyl-piperidin-1-yl}-quinoxaline-5-carbonitrile] | < 75 | < 75 |
| C[C@H]1C[C@@H](NCCNC(N)=O)CN(c2ccc(C(F)(F)F)c3ncccc23)C1 [Example 45, {2-[(3R,5S)-5-Methyl-1-(8-trifluoromethyl-quinolin-5-yl)-piperidin-3-ylamino]-ethyl}-urea] | < 75 | < 75 |
| CCS(=O)(=O)NCCN[C@@H]1C[C@H](C)CN(c2ccc(C#N)c3nccnc23)C1 [Example 46, Ethane sulfonic acid {2-[(3R,5S)-1-(8-cyano-quinoxalin-5-yl)-5-methyl-piperidin-3-ylamino]-ethyl}-amide] | 75 to 150 | < 75 |
| C[C@H]1C[C@@H](NCC2COC2)CN(c2ccc(C#N)c3nccnc23)C1 [Example 47, 8-{(3S,5R)-3-Methyl-5-[(oxetan-3-ylmethyl)-amino]-piperidin-1-yl}-quinoxaline-5-carbonitrile] | < 75 | < 75 |
| C[C@H]1C[C@@H](NCC2CCC(=O)N2)CN(c2ccc(C(F)(F)F)c3ncccc23)C1 (stereo partly drawn) [Example 48, 5-{[(3R,5S)-5-Methyl-1-(8-trifluoromethyl-quinolin-5-yl)-piperidin-3-ylamino]-methyl}-pyrrolidin-2-one] | < 75 | < 75 |
| CC(=O)NCCN[C@@H]1C[C@H](C)CN(c2ccc(C#N)c3nccnc23)C1 [Example 49, N-{2-[(3R,5S)-1-(8-Cyano-quinoxalin-5-yl)-5-methyl-piperidin-3-ylamino]-ethyl}-acetamide] | < 75 | < 75 |
| C[C@H]1C[C@@H](NCCC(=O)NC2CS(=O)(=O)C2)CN(c2ccc(C(F)(F)F)c3ncccc23)C1 [Example 54, N-(1,1-Dioxo-1lambda6-thietan-3-yl)-3-[(3R,5S)-5-methyl-1-(8-trifluoromethyl-quinolin-5-yl)-piperidin-3-ylamino]-propionamide] | < 75 | < 75 |
